Results reported in patent publication US11974990B2, “TXNIP-TRX complex inhibitors and methods of using the same” (City of Hope, priority 2018, dated 2024).

Tested on: THP1 cells
Test: Differential gene expression analysis by RNA-seq in high glucose treated THP1 cells
Type: cell-based, human
Conditions: THP1, HG 25 mM 72 hr with vs without C1 5 uM
Description: FIG. 17. Hierarchical Clustering using differential expressed genes. Differential expression was calculated using these counts with edgeR (5, 6) version 3.0. After correcting for differences in library sizes, a fold change of >1.5 and a p-value of <0.05 were applied to select expressed genes. The corrected measures of the latter were further processed using Cluster3.0 (7) to generate a heatmap using Java TreeView. C=HG treated THP-1 cells (A, B are replicates); T=HG+C1 5 uM (C, D are replicates). […]
RNA-seq: Sequence alignment and gene counts. RNA-Seq reads were trimmed to remove sequencing adapters using Trimmomatic (Bolger et al., 2014), and polyA tails using FASTP (Chen et al., 2018). The processed reads were mapped to the human genome (hg19) using STAR software (v. 020201) (Dobin et al., 2013). […]
Differential gene expression analyses by RNA-seq. […] Differential expression analysis was conducted by adjusting read counts to normalized expression values using the TMM normalization method in edgeR package (Robinson et al., 2010). […] Next, Raw counts for each gene in the GENCODE coding gene annotation (hg19) were measured using HTseq (Anders and Huber, 2010) with an argument of “-r pos -s reserve”. Differential expression was calculated using these counts with edgeR (5, 6) version 3.0. […]

CC(C)C(C(=O)O)N1C(=O)c2ccncc2C1=O (stereo not shown) [Compound C1, 2-(1,3-dioxo-1,3-dihydro-2H-pyrrolo[3,4-c]pyridin-2-yl)-3-methylbutanoic acid]
TXNIP and TNF-α expression by RNA-seq: suppressed TXNIP and TNF-α
